# Measurements: patent US12559494B2, “Functionalized lactams as modulators of the 5-hydroxytryptamine receptor 7 and their method of use” (Temple University - Of The Commonwealth System of Higher …, priority 2018, dated 2026)
# pKi: −log10 of the molar value. Counter-ions that a name gives are not always drawn.
# Molecular target: T1, 5HT7 receptors (Homo sapiens, UniProt P34969)
# Assay: Functional data (Kb), HitHunter cAMP enzyme fragment complementation assay with 5-HT as agonist
# Format: cell-based
# Design: expressed in transfected cells; G418 selection)
# Settings: Table 35, scaffold drawing 615; antagonist mode vs 5-HT; read-out: Kb
# Experimental: Functional efficacy of the compounds of the disclosure on 5-HT7 serotonin receptors were measured in a cell based cAMP enzyme fragment complementation assay using the HitHunter cAMP assay (DiscoveRx). Cells stably expressing human 5HT7 receptors were plated in 96-well plates at 4000 cells/well, 16-20 hours prior to assay in growth media (Ultraculture medium, 2 mM GlutaMax and G418 1 mg/mL. Serial dilutions of the agonist, 5-hydroxytryptamine (5-HT), were prepared in a final concentration range of 10 μM to 10 nM. Compounds of the disclosure were prepared in 3-fold serial dilutions to obtain a final concentration range of 10 μM to 0.1 nM. Compounds of the disclosure are tested for agonist activity in the absence of 5-HT and antagonist activity in the presence of 5-HT. For the cAMP assay, the protocol was followed according to the instructions provided by the supplier. Briefly, cells were incubated with a compound of the disclosure for 30 minutes at 37° C. prior to addition of EC70 concentration of 5-HT. After an additional 30 minutes, cAMP antibody/cell lysis solution was added (20 μL/well) and incubated for 60 minutes at room temperature. cAMP XS+EA reagent is added (20 μL/well) and incubated for 2 hours at room temperature. Luminescence was read on the Envision Multilabel plate reader.
# T1 sequence (P34969 whole entry, the tested form may be a part): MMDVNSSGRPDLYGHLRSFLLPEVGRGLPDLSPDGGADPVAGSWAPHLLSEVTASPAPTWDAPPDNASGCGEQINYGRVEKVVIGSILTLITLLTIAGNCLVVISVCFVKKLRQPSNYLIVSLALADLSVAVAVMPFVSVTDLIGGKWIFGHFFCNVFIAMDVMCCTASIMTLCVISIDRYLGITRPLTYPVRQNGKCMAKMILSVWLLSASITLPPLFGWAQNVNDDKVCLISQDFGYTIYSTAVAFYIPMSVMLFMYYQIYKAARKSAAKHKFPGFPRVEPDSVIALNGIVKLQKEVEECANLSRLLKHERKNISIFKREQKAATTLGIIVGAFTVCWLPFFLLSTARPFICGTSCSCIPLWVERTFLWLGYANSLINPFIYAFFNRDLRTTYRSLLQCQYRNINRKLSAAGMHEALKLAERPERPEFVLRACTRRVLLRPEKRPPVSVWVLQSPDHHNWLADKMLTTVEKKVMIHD
row,Kb [nM],Compound
1,230,"CCC1(CC)C[C@H](CCN2CCN(c3ccccc3OC)CC2)NC1=O [(R)-3,3-diethyl-5-(2-(4-(2-methoxyphenyl)piperazin-1-yl)ethyl)pyrrolidin-2-one]"
2,137,"CCC1(CC)C[C@H](CCN2CCN(c3ccc(C(F)(F)F)cc3)CC2)NC1=O [(R)-3,3-diethyl-5-(2-(4-(4-(trifluoromethyl)phenyl)piperazin-1-yl)ethyl)pyrrolidin-2-one]"
3,4.91,"CCC1(CC)C[C@H](CCN2CCN(c3ccccn3)CC2)NC1=O [(R)-3,3-diethyl-5-(2-(4-(pyridin-2-yl)piperazin-1-yl)ethyl)pyrrolidin-2-one]"
4,544,"CCC1(CC)C[C@H](CCN2CCN(c3ccc(C#N)cc3)CC2)NC1=O [(R)-4-(4-(2-(4,4-diethyl-5-oxopyrrolidin-2-yl)ethyl)piperazin-1-yl)benzonitrile]"
5,109,"CCC1(CC)C[C@H](CCN2CCN(c3ccccc3Cl)CC2)NC1=O [(R)-5-(2-(4-(2-chlorophenyl)piperazin-1-yl)ethyl)-3,3-diethylpyrrolidin-2-one]"
6,127,"CCC1(CC)C[C@H](CCN2CCN(c3ccccc3C)CC2)NC1=O [(R)-5-(2-(4-(2-methylphenyl)piperazin-1-yl)ethyl)-3,3-diethylpyrrolidin-2-one]"
7,9.89,"CCC1(CC)C[C@H](CCN2CCN(c3cccc(F)c3)CC2)NC1=O [(R)-5-(2-(4-(3-fluorophenyl)piperazin-1-yl)ethyl)-3,3-diethylpyrrolidin-2-one]"
8,1.65,"CCC1(CC)C[C@H](CCN2CCN(c3cccc(C)c3)CC2)NC1=O [(R)-5-(2-(4-(3-methylphenyl)piperazin-1-yl)ethyl)-3,3-diethylpyrrolidin-2-one]"
9,6.59,"CCC1(CC)C[C@H](CCN2CCN(c3ccccc3)CC2)NC1=O [drawing 615 n=2 R1=Ethyl R2=Ethyl R3=Phenyl, (R)-3,3-diethyl-5-(2-(4-phenylpiperazin-1-yl)ethyl)pyrrolidin-2-one]"

# Same assay, conditions: Table 36, scaffold drawing 616; antagonist mode vs 5-HT; read-out: Kb
row,Kb [nM],Compound
1,36.3,O=C1N[C@H](CCN2CCN(c3cccc(Cl)c3)CC2)CC12CC=CC2 [(S)-3-(2-(4-(3-chlorophenyl)piperazin-1-yl)ethyl)-2-azaspiro[4.4]non-7-en-1-one]
2,48.4,O=C1N[C@H](CCN2CCN(c3cccc(Cl)c3)CC2)CC12CCCC2 [(S)-3-(2-(4-(3-chlorophenyl)piperazin-1-yl)ethyl)-2-azaspiro[4.4]nonan-1-one]
3,46.2,O=C1N[C@H](CCN2CCN(c3ccc(F)cc3)CC2)CC12CC=CC2 [(S)-3-(2-(4-(4-fluorophenyl)piperazin-1-yl)ethyl)-2-azaspiro[4.4]non-7-en-1-one]
4,52.6,O=C1N[C@H](CCN2CCN(c3ccc(F)cc3)CC2)CC12CCCC2 [(S)-3-(2-(4-(4-fluorophenyl)piperazin-1-yl)ethyl)-2-azaspiro[4.4]nonan-1-one]

# Same assay, conditions: Table 37, scaffold drawing 617; antagonist mode vs 5-HT; read-out: Kb
row,Kb [nM],Compound
1,321,"CS(=O)(=O)N1CCC2(CC1)C[C@H](CCCN1CCN(c3cccc(Cl)c3)CC1)NC2=O [drawing 617 n=3 R3=3-Cl-Phenyl R7=MeSO2, (S)-3-(3-(4-(3-chlorophenyl)piperazin-1-yl)propyl)-8-(methylsulfonyl)-2,8-diazaspiro[4.5]decan-1-one]"
2,526,"CS(=O)(=O)N1CCC2(CC1)C[C@H](CCCN1CCN(c3ccc(F)cc3)CC1)NC2=O [drawing 617 n=3 R3=4-F-Phenyl R7=MeSO2, (S)-3-(3-(4-(4-fluorophenyl)piperazin-1-yl)propyl)-8-(methylsulfonyl)-2,8-diazaspiro[4.5]decan-1-one]"

# Same assay, conditions: Table 39, scaffold drawing 619; antagonist mode vs 5-HT; read-out: Kb
row,Kb [nM],Compound
1,144,"CCC1(CC)C[C@H](CCN2CC3CN(c4ccccc4)CC3C2)NC1=O (stereo partly drawn) [drawing 619 n=2 R1=Ethyl R2=Ethyl R3=Phenyl, (5R)-3,3-diethyl-5-(2-(5-phenylhexahydropyrrolo[3,4-c]pyrrol-2(1H)-yl)ethyl)pyrrolidin-2-one]"

# Same assay, conditions: cAMP assay, cells stably expressing human 5HT7 receptors, antagonist activity in the presence of EC70 5-HT; read-out: Kb (nM)^2
row,Kb [nM],Compound
1,163,"CCC1(CC)CC(CCN2CCN(c3ccccc3C(C)C)CC2)NC1=O (stereo not shown) [3,3-diethyl-5-(2-(4-(2-isopropylphenyl)piperazin-1-yl)ethyl)pyrrolidin-2-one]"
2,32.3,"CCC1(CC)CC(CCN2CCN(c3ccccc3N3CCOCC3)CC2)NC1=O (stereo not shown) [3,3-diethyl-5-(2-(4-(2-morpholinophenyl)piperazin-1-yl)ethyl)pyrrolidin-2-one]"
3,8.98,"CCC1(CC)CC(CCN2CCN(c3ccc(F)cc3)CC2)NC1=O (stereo not shown) [3,3-diethyl-5-(2-(4-(4-fluorophenyl)piperazin-1-yl)ethyl)pyrrolidin-2-one]"
4,50,"CCC1(CC)CC(CCN2CCN(c3ccc(O)cc3)CC2)NC1=O (stereo not shown) [3,3-diethyl-5-(2-(4-(4-hydroxyphenyl)piperazin-1-yl)ethyl)pyrrolidin-2-one]"
5,74.2,"CS(=O)(=O)N1CCC2(CC1)C[C@@H](CCN1CCN(c3ccc(F)cc3)CC1)NC2=O [drawing 618; n=2; R3=4-F-Phenyl; R7=MeSO2, (S)-3-(2-(4-(4-fluorophenyl)piperazin-1-yl)ethyl)-8-(methylsulfonyl)-2,8-diazaspiro[4.5]decan-1-one]"

# Molecular target: T1, 5HT7 receptors
# Assay: Radiolabeled binding (IC50 and Ki), [3H]LSD competition on membranes of cells expressing recombinant 5HT7 receptors
# Design: expressed in transfected cells
# Settings: Table 35, scaffold drawing 615
# Experimental: Radiolabel Binding Studies for Serotonin 5HT7 Receptors, Method 1:
# (§1) A solution of the compound of the disclosure to be tested is prepared as a 1-mg/ml stock in Assay Buffer or DMSO according to its solubility. A similar stock of the reference compound chlorpromazine is also prepared as a positive control. Eleven dilutions (5×assay concentration) of the compound of the disclosure and chlorpromazine are prepared in the Assay Buffer by serial dilution to yield final corresponding assay concentrations ranging from 10 pM to 10 μM.
# A stock concentration of 5 nM [^3H]LSD (lysergic acid diethyl amide) is prepared in 50 mM Tris-HCl, 10 mM MgCl2, 1 mM EDTA, pH 7.4 (Assay Buffer). Aliquots (50 μl) of radioligand are dispensed into the wells of a 96-well plate containing 100 μl of Assay Buffer. Duplicate 50-μl aliquots of the compound of the disclosure test and chlorpromazine positive control reference compound serial dilutions are added.
# Membrane fractions of cells expressing recombinant 5HT7 receptors (50 μL) are dispensed into each well. The membranes are prepared from stably transfected cell lines expressing 5HT7 receptors cultured on 10-cm plates by harvesting PBS-rinsed monolayers, resuspending and lysing in chilled, hypotonic 50 mM Tris-HCl, pH 7.4, centrifuging at 20,000×g, decanting the supernatant and storing at −80° C.; the membrane preparations are resuspended in 3 ml of chilled Assay Buffer and homogenized by several passages through a 26 gauge needle before using in the assay.
# The 250-μl reactions are incubated at room temperature for 1.5 hours, then harvested by rapid filtration onto 0.3% polyethyleneimine-treated, 96-well filter mats using a 96-well Filtermate harvester. Four rapid 500-μl washes are performed with chilled Assay Buffer to reduce non-specific binding. The filter mats are dried, then scintillant is added to the filters and the radioactivity retained on the filters is counted in a Microbeta scintillation counter.
# Raw data (dpm) representing total radioligand binding (i.e., specific+non-specific binding) are plotted as a function of the logarithm of the molar concentration of the competitor (i.e., test or reference compound). Non-linear regression of the normalized (i.e., percent radioligand binding compared to that observed in the absence of test or reference compound) raw data is performed in Prism 4.0 (GraphPad Software) using the built-in three parameter logistic model describing ligand competition binding to radioligand-labeled sites: y=bottom+[(top-bottom)/(1+10×−logIC50)] where bottom equals the residual radioligand binding measured in the presence of 10 μM reference compound (i.e., non-specific binding) and top equals the total radioligand binding observed in the absence of competitor. The log IC50 (i.e., the log of the ligand concentration that reduces radioligand binding by 50%) is thus estimated from the data and used to obtain the Ki by applying the Cheng-Prusoff approximation: Ki=IC50/(1+[ligand]/KD) • where [ligand] equals the assay radioligand concentration and KD equals the affinity constant of the radioligand for the target receptor.
# ^1Radiolabeled Binding (IC50 and K1)
# as §1, with “tested was” for “tested is”, “chlorpromazine was” for “chlorpromazine is”, “dilutions (5× assay” for “dilutions (5×assay”, “chlorpromazine were” for “chlorpromazine are”, “[…]” for “10 pM”
# A stock concentration of 5 nM [^3H]LSD (lysergic acid diethyl amide) was prepared in 50 mM Tris-HCl, 10 mM MgCl2, 1 mM EDTA, pH 7.4 (Assay Buffer). Aliquots (50 μl) of radioligand were dispensed into the wells of a 96-well plate containing 100 μl of Assay Buffer. […]
row,pKi,Compound
1,6.92,"CCC1(CC)C[C@H](CN2CCN(c3ccccc3C(C)C)CC2)NC1=O [(R)-3,3-diethyl-5-((4-(2-isopropylphenyl)piperazin-1-yl)methyl)pyrrolidin-2-one formate]"
2,6.61,"CCC1(CC)C[C@H](CN2CCN(c3ccc(F)cc3)CC2)NC1=O [(R)-3,3-diethyl-5-((4-(4-fluorophenyl)piperazin-1-yl)methyl)pyrrolidin-2-one formate]"
3,6.60,"CCC1(CC)C[C@H](CN2CCN(c3ccc(C)cc3)CC2)NC1=O [(R)-3,3-diethyl-5-((4-(p-tolyl)piperazin-1-yl)methyl)pyrrolidin-2-one formate]"
4,6.17,"CCC1(CC)C[C@H](CN2CCN(c3ccccn3)CC2)NC1=O [(R)-3,3-diethyl-5-((4-(pyridin-2-yl)piperazin-1-yl)methyl)pyrrolidin-2-one formate]"
5,5.96,"CCC1(CC)C[C@H](CN2CCN(c3cccc(Cl)c3)CC2)NC1=O [(R)-5-((4-(3-chlorophenyl)piperazin-1-yl)methyl)-3,3-diethylpyrrolidin-2-one]"
6,6.09,"CCC1(CC)C[C@H](CN2CCN(c3ccccc3)CC2)NC1=O [drawing 615 n=1 R1=Ethyl R2=Ethyl R3=Phenyl, (R)-3,3-diethyl-5-((4-phenylpiperazin-1-yl)methyl)pyrrolidin-2-one formate]"

# Same assay, conditions: [3H]LSD radioligand, membranes of cells expressing recombinant 5HT7 receptors; read-out: IC50 (nM)^1
row,IC50 [nM],Compound
1,23,"CCC1(CC)CC(CCN2CCN(c3ccccc3C(C)C)CC2)NC1=O (stereo not shown) [3,3-diethyl-5-(2-(4-(2-isopropylphenyl)piperazin-1-yl)ethyl)pyrrolidin-2-one]"
2,24,"CCC1(CC)CC(CCN2CCN(c3ccccc3N3CCOCC3)CC2)NC1=O (stereo not shown) [3,3-diethyl-5-(2-(4-(2-morpholinophenyl)piperazin-1-yl)ethyl)pyrrolidin-2-one]"
3,8.5,"CCC1(CC)CC(CCN2CCN(c3ccc(F)cc3)CC2)NC1=O (stereo not shown) [3,3-diethyl-5-(2-(4-(4-fluorophenyl)piperazin-1-yl)ethyl)pyrrolidin-2-one]"
4,34,"CCC1(CC)CC(CCN2CCN(c3ccc(O)cc3)CC2)NC1=O (stereo not shown) [3,3-diethyl-5-(2-(4-(4-hydroxyphenyl)piperazin-1-yl)ethyl)pyrrolidin-2-one]"
